Laboratory results published in patent US20240246942A1, “KINASE INHIBITORS FOR THE TREATMENT OF NEURODEGENERATIVE DISEASES” (priority 2020, published 2024).
Where two headings read alike, the source gives them in different places.

Legend:
Assay in all cases: biochemical
[1] = target: T1, panel of 374 wild-type kinases (Homo sapiens, UniProt Q9UBE8); conditions: read-out: % Enzyme Activity (relative to DMSO controls), NLK
T1 construct: purchased Reaction Biology Corporation
T1 sequence (Q9UBE8 1-527): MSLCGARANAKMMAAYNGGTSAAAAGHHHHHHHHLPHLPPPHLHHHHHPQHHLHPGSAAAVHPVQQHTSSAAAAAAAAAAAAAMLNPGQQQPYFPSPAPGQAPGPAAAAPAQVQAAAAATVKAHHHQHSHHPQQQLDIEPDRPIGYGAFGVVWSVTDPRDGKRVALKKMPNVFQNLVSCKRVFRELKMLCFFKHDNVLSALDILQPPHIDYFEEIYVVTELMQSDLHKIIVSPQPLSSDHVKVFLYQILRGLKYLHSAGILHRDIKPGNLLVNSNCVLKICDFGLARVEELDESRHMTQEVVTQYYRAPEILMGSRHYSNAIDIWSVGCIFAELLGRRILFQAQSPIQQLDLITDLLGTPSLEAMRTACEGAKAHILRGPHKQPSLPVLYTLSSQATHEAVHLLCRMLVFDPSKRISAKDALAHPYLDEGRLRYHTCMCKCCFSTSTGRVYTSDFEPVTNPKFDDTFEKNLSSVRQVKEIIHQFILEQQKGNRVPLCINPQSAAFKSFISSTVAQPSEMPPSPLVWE

[2] = target: T2, panel of 374 wild-type kinases (Homo sapiens, UniProt Q9NWZ3); conditions: read-out: % Enzyme Activity (relative to DMSO controls), IRAK4
T2 construct: purchased Reaction Biology Corporation
T2 sequence (Q9NWZ3 1-460): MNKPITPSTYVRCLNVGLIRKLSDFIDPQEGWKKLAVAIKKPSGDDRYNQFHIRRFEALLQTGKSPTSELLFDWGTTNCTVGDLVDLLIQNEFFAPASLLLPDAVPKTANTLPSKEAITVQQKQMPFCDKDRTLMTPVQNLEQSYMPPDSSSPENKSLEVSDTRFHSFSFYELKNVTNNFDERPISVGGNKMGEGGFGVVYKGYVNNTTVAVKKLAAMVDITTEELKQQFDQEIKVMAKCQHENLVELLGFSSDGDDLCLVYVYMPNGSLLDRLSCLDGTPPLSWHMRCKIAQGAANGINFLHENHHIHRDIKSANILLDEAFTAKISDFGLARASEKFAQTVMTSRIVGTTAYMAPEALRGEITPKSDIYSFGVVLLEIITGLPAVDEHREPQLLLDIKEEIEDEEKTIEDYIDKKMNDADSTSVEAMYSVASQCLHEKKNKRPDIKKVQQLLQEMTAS

[3] = target: T3, panel of 374 wild-type kinases (Homo sapiens, UniProt Q86V86); conditions: read-out: % Enzyme Activity (relative to DMSO controls), kinase PIM3
T3 construct: purchased Reaction Biology Corporation

[4] = target: T4, panel of 374 wild-type kinases (Homo sapiens, UniProt P80192); conditions: read-out: % Enzyme Activity (relative to DMSO controls), MLK1/MAP3K9
T4 construct: purchased Reaction Biology Corporation
T4 sequence (P80192 whole entry): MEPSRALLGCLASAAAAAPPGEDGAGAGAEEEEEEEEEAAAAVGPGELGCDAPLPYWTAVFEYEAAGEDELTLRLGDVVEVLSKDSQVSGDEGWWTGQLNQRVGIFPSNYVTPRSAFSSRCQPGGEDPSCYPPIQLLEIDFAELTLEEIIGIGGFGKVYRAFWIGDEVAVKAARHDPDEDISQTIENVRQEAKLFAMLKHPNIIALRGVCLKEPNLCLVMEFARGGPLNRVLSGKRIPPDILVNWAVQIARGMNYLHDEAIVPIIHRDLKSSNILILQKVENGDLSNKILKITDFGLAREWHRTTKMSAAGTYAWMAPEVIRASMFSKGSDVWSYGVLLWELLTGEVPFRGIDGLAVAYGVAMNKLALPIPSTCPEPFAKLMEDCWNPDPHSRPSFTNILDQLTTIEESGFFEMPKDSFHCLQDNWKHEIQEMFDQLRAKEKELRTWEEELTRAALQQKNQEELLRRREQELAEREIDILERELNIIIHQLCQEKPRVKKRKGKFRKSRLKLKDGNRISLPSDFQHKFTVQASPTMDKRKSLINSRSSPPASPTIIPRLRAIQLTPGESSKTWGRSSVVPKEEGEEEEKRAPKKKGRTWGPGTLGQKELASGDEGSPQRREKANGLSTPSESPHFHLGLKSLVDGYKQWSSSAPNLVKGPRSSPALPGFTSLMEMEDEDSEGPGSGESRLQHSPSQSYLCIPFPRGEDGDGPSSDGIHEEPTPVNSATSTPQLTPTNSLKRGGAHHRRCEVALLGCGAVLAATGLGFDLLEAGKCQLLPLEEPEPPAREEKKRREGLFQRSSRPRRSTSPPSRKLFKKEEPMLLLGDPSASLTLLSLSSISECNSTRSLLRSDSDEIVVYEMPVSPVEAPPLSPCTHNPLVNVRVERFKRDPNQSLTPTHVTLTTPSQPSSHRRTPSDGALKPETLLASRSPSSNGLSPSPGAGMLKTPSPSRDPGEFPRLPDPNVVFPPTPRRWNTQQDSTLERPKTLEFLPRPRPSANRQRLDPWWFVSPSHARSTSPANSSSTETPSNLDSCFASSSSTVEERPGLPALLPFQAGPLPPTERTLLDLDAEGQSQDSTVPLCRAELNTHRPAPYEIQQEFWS

[5] = target: T5, panel of 374 wild-type kinases (Homo sapiens, UniProt Q06418); conditions: read-out: % Enzyme Activity (relative to DMSO controls), kinase TYRO3/SKY
T5 construct: purchased Reaction Biology Corporation
T5 sequence (Q06418 41-890): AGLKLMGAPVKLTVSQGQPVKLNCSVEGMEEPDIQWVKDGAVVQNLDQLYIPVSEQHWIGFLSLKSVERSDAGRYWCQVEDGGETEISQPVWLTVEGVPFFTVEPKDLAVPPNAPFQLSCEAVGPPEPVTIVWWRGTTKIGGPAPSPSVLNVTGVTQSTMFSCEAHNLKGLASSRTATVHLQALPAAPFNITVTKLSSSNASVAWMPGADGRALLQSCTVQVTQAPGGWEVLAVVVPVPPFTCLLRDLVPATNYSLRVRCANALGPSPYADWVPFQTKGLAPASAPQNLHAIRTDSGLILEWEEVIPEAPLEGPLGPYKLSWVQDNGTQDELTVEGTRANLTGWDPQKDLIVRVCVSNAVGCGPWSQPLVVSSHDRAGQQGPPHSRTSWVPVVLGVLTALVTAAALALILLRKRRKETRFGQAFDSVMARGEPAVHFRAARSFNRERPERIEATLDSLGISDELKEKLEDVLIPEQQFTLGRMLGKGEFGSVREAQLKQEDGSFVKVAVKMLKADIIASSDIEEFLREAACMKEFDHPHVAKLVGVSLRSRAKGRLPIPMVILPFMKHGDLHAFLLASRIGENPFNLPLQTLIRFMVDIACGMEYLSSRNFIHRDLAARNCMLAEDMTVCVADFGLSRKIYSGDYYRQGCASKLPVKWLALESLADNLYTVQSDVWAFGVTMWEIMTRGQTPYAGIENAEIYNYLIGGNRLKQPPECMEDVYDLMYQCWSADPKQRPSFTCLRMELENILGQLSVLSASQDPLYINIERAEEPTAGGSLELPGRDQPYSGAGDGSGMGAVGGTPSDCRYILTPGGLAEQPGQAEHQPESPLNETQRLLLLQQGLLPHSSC

[6] = target: T6, panel of 374 wild-type kinases (Homo sapiens, UniProt P11802)
T6 construct: purchased Reaction Biology Corporation
T6 sequence (P11802 whole entry): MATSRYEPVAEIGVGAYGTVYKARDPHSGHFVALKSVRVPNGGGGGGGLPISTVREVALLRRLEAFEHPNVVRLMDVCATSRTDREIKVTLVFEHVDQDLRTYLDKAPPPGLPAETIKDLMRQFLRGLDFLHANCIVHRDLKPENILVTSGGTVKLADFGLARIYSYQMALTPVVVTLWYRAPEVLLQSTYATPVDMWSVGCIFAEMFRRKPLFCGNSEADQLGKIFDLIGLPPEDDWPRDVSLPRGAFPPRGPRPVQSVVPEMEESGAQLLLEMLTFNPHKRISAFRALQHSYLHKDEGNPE

[7] = target: T7, panel of 374 wild-type kinases (Homo sapiens, UniProt Q13233); conditions: read-out: % Enzyme Activity (relative to DMSO controls), MEKK1
T7 construct: purchased Reaction Biology Corporation
T7 sequence (Q13233 whole entry): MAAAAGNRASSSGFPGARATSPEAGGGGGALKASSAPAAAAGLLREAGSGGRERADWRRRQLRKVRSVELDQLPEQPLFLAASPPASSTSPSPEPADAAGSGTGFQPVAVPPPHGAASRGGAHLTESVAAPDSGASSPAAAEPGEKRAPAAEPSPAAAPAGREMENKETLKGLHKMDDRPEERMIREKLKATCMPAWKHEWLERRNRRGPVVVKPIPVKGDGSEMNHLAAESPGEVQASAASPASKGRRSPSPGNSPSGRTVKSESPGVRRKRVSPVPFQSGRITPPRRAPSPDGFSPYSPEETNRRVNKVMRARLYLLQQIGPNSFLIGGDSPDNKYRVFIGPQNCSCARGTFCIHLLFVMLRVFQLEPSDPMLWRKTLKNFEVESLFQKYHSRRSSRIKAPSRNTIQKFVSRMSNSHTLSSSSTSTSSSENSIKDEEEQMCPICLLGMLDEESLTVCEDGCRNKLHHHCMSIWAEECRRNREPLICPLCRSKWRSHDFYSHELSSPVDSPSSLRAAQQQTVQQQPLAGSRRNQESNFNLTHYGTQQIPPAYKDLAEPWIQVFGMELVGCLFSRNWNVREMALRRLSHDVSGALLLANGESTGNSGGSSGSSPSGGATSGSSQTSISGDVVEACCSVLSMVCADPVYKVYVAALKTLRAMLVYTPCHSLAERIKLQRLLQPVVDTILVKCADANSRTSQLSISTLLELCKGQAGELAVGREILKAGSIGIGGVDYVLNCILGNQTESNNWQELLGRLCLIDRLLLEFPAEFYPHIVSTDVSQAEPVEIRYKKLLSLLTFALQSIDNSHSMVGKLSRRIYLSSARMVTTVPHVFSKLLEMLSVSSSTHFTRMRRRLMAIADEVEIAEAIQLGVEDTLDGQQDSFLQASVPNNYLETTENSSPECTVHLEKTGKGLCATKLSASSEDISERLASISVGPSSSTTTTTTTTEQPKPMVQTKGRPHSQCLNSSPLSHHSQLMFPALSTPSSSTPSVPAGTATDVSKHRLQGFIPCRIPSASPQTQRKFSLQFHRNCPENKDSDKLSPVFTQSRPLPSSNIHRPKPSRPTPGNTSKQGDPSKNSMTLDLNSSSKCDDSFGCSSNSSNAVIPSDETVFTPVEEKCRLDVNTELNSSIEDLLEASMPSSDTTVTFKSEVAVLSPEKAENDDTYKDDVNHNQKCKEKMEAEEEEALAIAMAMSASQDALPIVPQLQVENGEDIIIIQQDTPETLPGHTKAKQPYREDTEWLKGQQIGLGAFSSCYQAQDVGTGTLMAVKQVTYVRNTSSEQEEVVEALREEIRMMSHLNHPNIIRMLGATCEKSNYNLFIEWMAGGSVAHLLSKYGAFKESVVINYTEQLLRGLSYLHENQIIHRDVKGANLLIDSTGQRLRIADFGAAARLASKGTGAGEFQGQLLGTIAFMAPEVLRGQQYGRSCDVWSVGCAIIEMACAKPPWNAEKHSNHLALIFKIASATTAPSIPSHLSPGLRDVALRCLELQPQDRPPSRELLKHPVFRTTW

[8] = read-out: % Enzyme Activity (relative to DMSO controls), CDK4/cyclin D1
[9] = read-out: % Enzyme Activity (relative to DMSO controls), CDK4/cyclin D3

O=C(Nc1cnn(-c2csc(C(=O)NC3COC3)c2)c1)Nc1ccccc1Cl [Compound 17, 4-(4-(3-(2-chlorophenyl)ureido)-1H-pyrazol-1-yl)-N-(oxetan-3-yl)thiophene-2-carboxamide]
remaining activity at 5 µM [1]: 99.5% | remaining activity at 5 µM [2]: 92.1% | remaining activity at 5 µM [3]: 61.2% | remaining activity at 5 µM [4]: 95.1% | remaining activity at 5 µM [5]: 75.4% | remaining activity at 5 µM [6, 8]: 92.2% | remaining activity at 5 µM [6, 9]: 98.2% | remaining activity at 5 µM [7]: 103%

O=C(Nc1cnn(-c2csc(C(=O)NC3COC3)c2)c1)Nc1c(F)cccc1Cl [Compound 25, 4-(4-(3-(2-chloro-6-fluorophenyl)ureido)-1H-pyrazol-1-yl)-N-(oxetan-3-yl)thiophene-2-carboxamide]
remaining activity at 5 µM [1]: 87.4% | remaining activity at 5 µM [2]: 97.8% | remaining activity at 5 µM [3]: 73.9% | remaining activity at 5 µM [4]: 88.5% | remaining activity at 5 µM [5]: 68.4% | remaining activity at 5 µM [6, 8]: 90.3% | remaining activity at 5 µM [6, 9]: 79.4% | remaining activity at 5 µM [7]: 98.7%

Cc1sc(C(=O)NC2COC2)cc1-n1cc(NC(=O)Nc2c(F)cccc2Cl)cn1 [Compound 27, 4-(4-(3-(2-chloro-6-fluorophenyl)ureido)-1H-pyrazol-1-yl)-5-methyl-N-(oxetan-3-yl)thiophene-2-carboxamide]
remaining activity at 10 µM ([1]; 10 uM): 85.2% | remaining activity at 10 µM ([2]; 10 uM): 103% | remaining activity at 10 µM ([3]; 10 uM): 129% | remaining activity at 10 µM ([4]; 10 uM): 87.5% | remaining activity at 10 µM ([5]; 10 uM): 98.8% | remaining activity at 10 µM [6, 8]: 78% | remaining activity at 10 µM [6, 9]: 96.5% | remaining activity at 10 µM ([7]; 10 uM): 94.5%
